Experimental findings from US12366579B2, “Sulfur-heterocycle exchange chemistry and uses thereof” (University of Virginia Patent Foundation, priority 2019, dated 2025) are described below.

Assay [1] deals with human cell proteomes (HEK293T, A549, DM93, H82, and Jurkat cells). The assay can be described thus: LC-MS chemical proteomics of probe-modified tyrosine sites across 5 cell proteomes. The format is binding. As to conditions: HHS-465 and -475 together; 100 μM, 1 hr, 25° C. How it is done:
Proteomes were diluted to 2.3 mg/mL in PBS and sample aliquots (432 μL) were treated with sulfonyl-triazole or -fluoride probes at the indicated concentrations (5 μL, 100× stock in DMSO), mixed gently and incubated for 1 h at room temperature. Probe-modified proteomes were subjected to CuAAC conjugation to desthiobiotin-PEG3-azide (10 μL of 10 mM stock in DMSO; final concentration of 200 μM) using TCEP (10 μL of fresh 50 mM stock in water; 1 mM final concentration), TBTA ligand (33 μL of a 1.7 mM 4:1 t-butanol/DMSO stock, 100 μM final concentration), and CuSO4 (10 μL of 50 mM stock, 1 mM final concentration). Samples were mixed by vortexing and then incubated for 1 h at room temperature. Excess reagents were removed by chloroform-methanol extraction as previously described^51. Protein pellets were re-suspended in 500 μL of 6M urea/25 mM ammonium bicarbonate followed by DTT reduction and IAA alkylation as previously described^5. Excess reagents were removed by chloroform/methanol extraction as described above, and the protein pellet was re-suspended in 500 μL of 25 mM ammonium bicarbonate and then digested to peptides using trypsin/Lys-C (7.5 μg in 15 μL of ammonium bicarbonate, sequencing grade from Promega, Madison, Wisconsin, United States of America) was added to the mixture and incubated for 3 hrs at 37° C. […]

A short description of assay [2]: HPLC assay, p-cresol reactivity against a sulfonyl probe mixture. The format is physicochemical. As to conditions: TMG 1.1 equivalents, 0° C. How it is done: The following reagents were prepared and kept at 0° C. prior to use: 0.1 M solution of caffeine in acetonitrile (ACN), 1.0 M solution of n-butylamine, p-cresol, tetramethylguanidine (TMG), acetic acid in ACN, and 10 mM solution of the probes in a mixture of DMF-ACN (v/v=10:90) are made.
(i) p-Cresol reactivity against a probe mixture: A solution of p-cresol (16.5 μmol, 3.3 eq) was premixed with 1.1, 2.2, or 3.3 eq of TMG. To initiate the reaction, the p-cresol/TMG solution was added to a sulfonyl probe mixture of HHS-475/HHS-482/HHS-SF-1 (500 μL, 5 μmol, 1.0 eq each) and the reaction was kept at 0° C. The reaction progress was monitored by taking out a 50.0 μL aliquot of the reaction mixture at various time points followed by addition of a 10 μL quenching solution of acetic acid (0.5 M final, 5.0 μmol) and the internal caffeine standard (0.05 M final, 0.5 μmol). Sample (1.0 μL) was injected and analyzed by reverse-phase HPLC on a Shimadzu 1100 Series spectrometer (Shimadzu, Kyoto, Japan) with UV detection at 254 nm. Reaction progress was evaluated by monitoring consumption of sulfonyl probes because all probes generate a shared p-cresol and n-butylamine product. Chromatographic separation was performed using a Phenomenex Kinetex C18 column (2.6 μm, 50 mm×4.6 mm, Phemonenex, Torrance, California, United States of America). […]

As for `C#CCNC(=O)c1ccc(S(=O)(=O)n2cncn2)cc1` [HHS-475, 4-((1H-1,2,4-Triazol-1-yl)sulfonyl)-N-(prop-2-yn-1-yl)benzamide], the “tyrosine sites identified in aggregate across 5 cell proteomes” value in assay [1] was ~8,000 sites. Also, the “time to consumption of probe by p-cresol” value in assay [2] was at most 30 min.
